Results reported in paper doi:10.1101/2023.08.03.551817v2 (biorxiv, 2024).

Columns and labels:
Assay in all cases: two-electrode voltage clamp, Xenopus oocytes
[1] = molecular target: T1, GluN1/GluN2A NMDA receptor (GluN1 ligand-binding site) (Rattus norvegicus, UniProt P35439); format: cell-based
T1 construct: gene Grin1; pcDNA3.1 inserts; mRNA-injected Xenopus laevis oocytes; hetero-tetramer

[2] = molecular target: T2, GluN1/GluN2A NMDA receptor (GluN1 ligand-binding site) (Rattus norvegicus, UniProt P35439, D732L); format: cell-based
T2 construct: gene Grin1; pcDNA3.1 inserts; mRNA-injected Xenopus laevis oocytes; hetero-tetramer

AKDF^19383 [3] = tested on: T3, AKDF^19383; format: cell-based, Trichoplax adhaerens; conditions: inhibition of constitutive current; pH 7.5; -80 mV
T3 construct: gene TRIADDRAFT_19383; codon-optimized, modified pSP64-poly(A); Xenopus laevis oocytes; homo-tetramer

AKDF^19383 [4] = tested on: T3, AKDF^19383; format: cell-based, Trichoplax adhaerens; conditions: pH 7.5; -80 mV; agonist
[5] = molecular target: T4, GluN1/GluN2A NMDA receptor (channel pore) (Rattus norvegicus, UniProt P35439+Q00959); format: cell-based; conditions: glycine and glutamate present; pH 7.3; -60 mV; open-channel block kinetics
T4 construct: gene Grin1; pcDNA3.1 inserts; mRNA-injected Xenopus laevis oocytes; hetero-tetramer

## O=C(O)c1cc(O)c2c(Cl)cc(Cl)cc2n1 [5,7-dichlorokynurenic acid]
[1]
  IC50: 24.9 ± 5.2 µM
[2]
  IC50: 0.44 ± 0.12 µM

## N[C@H](CO)C(=O)O [D-serine]
AKDF^19383 [3]
  % inhibition at 10 mM: ~ 50%
AKDF^19383 [4]
  EC50: 490 ± 120 µM

## C[C@]12N[C@H](Cc3ccccc31)c1ccccc12 [MK-801]
[5]
  two-electrode voltage clamp, Xenopus oocytes: very similar kinetics of inhibition of WT and mutant receptors (Fig. 3A)

## C[C@H](N)C(=O)O [alanine]
AKDF^19383 [3]
  % inhibition at 10 mM: ~ 50%

## NCC(=O)O [glycine]
AKDF^19383 [3]
  % inhibition at 10 mM: ~ 50%
